Results: patent US12497408B2, “Tetracyclic compounds and methods for the treatment of Zika virus infection” (priority 2021, dated 2025)

tested on: ZIKV; assay: ZIKV reporter virus-based antiviral screening on Huh7 cells; type: cell-based, Zika virus; details: Zika virus, Huh-7, 48 h, Huh7 cells infected with recombinant luciferase reporter ZIKV (MOI about 0.1), luciferase signal
Source text: Protocol for ZIKV reporter virus-based antiviral screening on Huh7 cells:
• Human hepatocyte-derived carcinoma cell line (Huh7) 2. Reagents • ViviRen™ Live Cell Substrate (Promega, Cat #E6492) or Nano Glo assay system (Promega: N1130) • White opaque 96-well TC-treated microplates (Corning, Cat #3916) • 96-well Clear V-Bottom TC-treated Microplate (Corning, Cat #3894) • Complete cell culture media: DMEM (Gibco, Cat #10569) supplemented with 10% FBS (HyClone, Cat #SH30071.03IH25-40)+1% MEM Non-Essential Amino Acids Solution 100×(Gibco, Cat #11140050)+1% Penicillin-Streptomycin (10,000 U/mL) (Gibco, Cat #15140122). • Assay media: DMEM media (Gibco, Cat #31053028) supplemented with 2% FBS, 2% GlutaMAX™ Supplement (Gibco Cat #35050061), 1% Sodium Pyruvate solution (Gibco, Cat #11360070), 1% MEM Non-Essential Amino Acids Solution 100× and 1% Penicillin-Streptomycin (10,000 U/mL). • Trypsin-EDTA solution (Gibco, Cat #25200056) 3. Virus • Recombinant ZIKV strain with Renilla luciferase gene (strain FSS-Rlu) or Nano luciferase gene (Strain PRV-Nano, Dakar-Nano) 4. Instruments • BioTek Cytation 5 or other plate-readers for chemiluminescence detection model. • Eppendorf plate centrifuge • Plate shaker • Eppendorf multichannel pipettes Procedures Day 1: Preparation of Cells • Human hepatocyte-derived carcinoma cell line (Huh7) cells were detached from a T-175 flask by using a Trypsin-EDTA solution. The detached cells were suspended in complete culture media in a sterile 50-ml conical tube. • The 50-ml conical tube was centrifuged at 1200×rpm for 3 min at room temperature. • The cells were resuspended in assay media. The cell numbers were counted, and the cells diluted to a density of 3×10^5 cells/ml. • The cells were plated at 50 μl cells per well in White opaque 96-well plates (assay plates). Gently shake the plates to ensure cells to attach to the plate evenly. • The plated cells were incubated in a humidified incubator (37° C. with 5% CO2). Day 2: Infection • 1) Nine serial (2-fold or 3-fold) concentrated compounds were prepared using 90% DMSO solution and DMSO controls in a clear V-bottom 96-well plate (compound plate). • For example:
• 2) The reporter virus stock was diluted to a concentration of 3×10^4 FFU (FFU: focus-forming unit)/ml using the assay media. 200 μl diluted virus per well was aliquoted into a clear V-bottom 96-well plate (mixing plate). • 3) 1 μl above 400×concentrated compound dilutions was added from the compound plate to each well of the mixing plate. The plates were shaken on a plate shaker for 5 min. • 4) 50 μl compound-virus mixture was added into each well of the assay plates (the MOI is about 0.1). The plates were shaken gently by mixing the virus evenly. • An example of the format for assay plate:
• control. • 5) The plates were centrifuged at 1000 rpm for 15 s. • 6) The plates were incubated at 37° C. with 5% CO2 in a humidified incubator for 48 hrs. Day 4: Read Luciferase Signals • 7) The ViviRen™ Live Cell Substrate was diluted in assay media for 3000× folds. 25 μl of diluted substrates was added into each well of the assay plates. • For Nano-Glo assay system, 50 μl diluted substrates (50×fold diluted from the stock in assay buffer) were added. • 8) The plates were incubated at room temperature for 5 min. • 9) Optimally, cell viability is measured using the Promega Cell-titer Glo kit (only used when ZIKV-Rlu was used for infection). • 10) Luciferase signals were read using the Cytation 5 with gain value of 120-150. Data Analysis • a. The luciferase signals from DMSO-treated groups (un-treated controls) were set as 100%. The relative luciferase signals were obtained by normalizing the luciferase signals from each dilution-treated group to that of the controls. • b.

Which EC50 does the source give for `CC[C@@H](C)[C@H](NC(=O)OC)C(=O)N1CC2(CC2)C[C@H]1c1nc(Cl)c(-c2cc3c4c(c2)OCc2cc(-c5[nH]c([C@@H]6CC7(CC7)CN6C(=O)[C@@H](NC(=O)OC)[C@H](C)CC)nc5C(C)C)cc(c2-4)OC3)[nH]1` [Compound 83, methyl ((2S,3R)-1-((S)-6-(5-(7-(4-chloro-2-((S)-5-((methoxycarbonyl)-L-alloisoleucyl)-5-azaspiro[2.4]heptan-6-yl)-1H-imidazol-5-yl)-5,10-dihydrochromeno[5,4,3-cde]chromen-2-yl)-4-isopropyl-1H-imidazol-2-yl)-5-azaspiro[2.4]heptan-5-yl)-3-methyl-1-oxopentan-2-yl)carbamate] here?
The EC50 was 2.4 nM.

With `COC(=O)N[C@H](C(=O)N1CC(C)(C)C[C@H]1c1nc(Cl)c(-c2cc3c4c(c2)OCc2cc(-c5[nH]c([C@@H]6CC(C)(C)CN6C(=O)[C@@H](NC(=O)OC)C(C)(C)C(F)(F)F)nc5Cl)cc(c2-4)OC3)[nH]1)C(C)(C)C(F)(F)F` [Compound 9, dimethyl ((2S,2′S)-((5S,5′S)-((5,10-dihydrochromeno[5,4,3-cde]chromene-2,7-diyl)bis(4-chloro-1H-imidazole-5,2-diyl))bis(3,3-dimethylpyrrolidine-5,1-diyl))bis(4,4,4-trifluoro-3,3-dimethyl-1-oxobutane-1,2-diyl))dicarbamate] as the compound, how does the EC50 read?
The EC50 was 4.6 nM.

`COC(=O)N[C@H](C(=O)N1CC2(CC2)C[C@H]1c1nc(Cl)c(-c2cc3c4c(c2)OCc2cc(-c5[nH]c([C@@H]6CC7(CC7)CN6C(=O)[C@@H](NC(=O)OC)C(C)(C)C)nc5C(C)C)cc(c2-4)OC3)[nH]1)C(C)(C)C` [Compound 82, methyl ((S)-1-((S)-6-(5-(7-(4-chloro-2-((S)-5-((S)-2-((methoxycarbonyl)amino)-3,3-dimethylbutanoyl)-5-azaspiro[2.4]heptan-6-yl)-1H-imidazol-5-yl)-5,10-dihydrochromeno[5,4,3-cde]chromen-2-yl)-4-isopropyl-1H-imidazol-2-yl)-5-azaspiro[2.4]heptan-5-yl)-3,3-dimethyl-1-oxobutan-2-yl)carbamate] was tested. Which EC50 did it give?
The EC50 was 2.6 nM.

With `COC(=O)N[C@H](C(=O)N1C[C@@H](C)C[C@H]1c1nc(Cl)c(-c2cc3c4c(c2)OCc2cc(-c5[nH]c([C@@H]6C[C@H](C)CN6C(=O)[C@@H](NC(=O)OC)C(C)C)nc5Br)cc(c2-4)OC3)[nH]1)C(C)C` [Compound 69, methyl ((S)-1-((2S,4S)-2-(4-bromo-5-(7-(4-chloro-2-((2S,4S)-1-((methoxycarbonyl)-L-valyl)-4-methylpyrrolidin-2-yl)-1H-imidazol-5-yl)-5,10-dihydrochromeno[5,4,3-cde]chromen-2-yl)-1H-imidazol-2-yl)-4-methylpyrrolidin-1-yl)-3-methyl-1-oxobutan-2-yl)carbamate] as the compound, how does the EC50 read?
The EC50 was 11.6 nM.

`CC[C@H](C)[C@H](NC(=O)OC)C(=O)N1CCC[C@H]1c1ncc(-c2cc3c4c(c2)OCc2cc(-c5[nH]c([C@@H]6CCCN6C(=O)[C@@H](NC(=O)OC)[C@@H](C)CC)nc5Cl)cc(c2-4)OC3)[nH]1` [Compound 22, methyl ((2S,3S)-1-((S)-2-(5-(7-(4-chloro-2-((S)-1-((methoxycarbonyl)-L-isoleucyl)pyrrolidin-2-yl)-1H-imidazol-5-yl)-5,10-dihydrochromeno[5,4,3-cde]chromen-2-yl)-1H-imidazol-2-yl)pyrrolidin-1-yl)-3-methyl-1-oxopentan-2-yl)carbamate] was tested. Which EC50 did it give?
Its EC50 is 14.1 nM.

For `COC(=O)N[C@H](C(=O)N1[C@@H](C)CC[C@H]1c1ncc(-c2cc3c4c(c2)OCc2cc(-c5[nH]c([C@@H]6CC[C@H](C)N6C(=O)[C@@H](NC(=O)OC)C(C)C)nc5Cl)cc(c2-4)OC3)[nH]1)C(C)C` [Compound 75, methyl ((S)-1-((2S,5S)-2-(4-chloro-5-(7-(2-((2S,5S)-1-((methoxycarbonyl)-L-valyl)-5-methylpyrrolidin-2-yl)-1H-imidazol-5-yl)-5,10-dihydrochromeno[5,4,3-cde]chromen-2-yl)-1H-imidazol-2-yl)-5-methylpyrrolidin-1-yl)-3-methyl-1-oxobutan-2-yl)carbamate], which EC50 is on record?
Its EC50 is 9.6 nM.

With `CC[C@H](C)[C@H](NC(=O)OC)C(=O)N1C[C@@H](C)C[C@H]1c1ncc(-c2cc3c4c(c2)OCc2cc(-c5[nH]c([C@@H]6C[C@H](C)CN6C(=O)[C@@H](NC(=O)OC)[C@@H](C)CC)nc5C(C)C)cc(c2-4)OC3)[nH]1` [Compound 70, methyl ((2S,3S)-1-((2S,4S)-2-(4-isopropyl-5-(7-(2-((2S,4S)-1-((methoxycarbonyl)-L-isoleucyl)-4-methylpyrrolidin-2-yl)-1H-imidazol-5-yl)-5,10-dihydrochromeno[5,4,3-cde]chromen-2-yl)-1H-imidazol-2-yl)-4-methylpyrrolidin-1-yl)-3-methyl-1-oxopentan-2-yl)carbamate] as the compound, how does the EC50 read?
The EC50 was 17.4 nM.

Which EC50 does the source give for `COC(=O)N[C@H](C(=O)N1CC(F)(F)C[C@H]1c1nc(Cl)c(-c2cc3c4c(c2)OCc2cc(-c5[nH]c([C@@H]6CC(F)(F)CN6C(=O)[C@@H](NC(=O)OC)C(C)C)nc5Cl)cc(c2-4)OC3)[nH]1)C(C)C` [Compound 56, dimethyl ((2S,2′S)-((5S,5′S)-((5,10-dihydrochromeno[5,4,3-cde]chromene-2,7-diyl)bis(4-chloro-1H-imidazole-5,2-diyl))bis(3,3-difluoropyrrolidine-5,1-diyl))bis(3-methyl-1-oxobutane-1,2-diyl))dicarbamate] here?
Its EC50 is 3.8 nM.

`COC(=O)N[C@H](C(=O)N1C[C@@H](C)C[C@H]1c1nc(Cl)c(-c2cc3c4c(c2)OCc2cc(-c5[nH]c([C@@H]6C[C@H](C)CN6C(=O)[C@@H](NC(=O)OC)C(C)C)nc5C(C)C)cc(c2-4)OC3)[nH]1)C(C)C` [Compound 80, methyl ((S)-1-((2S,4S)-2-(5-(7-(4-chloro-2-((2S,4S)-1-((methoxycarbonyl)-L-valyl)-4-methylpyrrolidin-2-yl)-1H-imidazol-5-yl)-5,10-dihydrochromeno[5,4,3-cde]chromen-2-yl)-4-isopropyl-1H-imidazol-2-yl)-4-methylpyrrolidin-1-yl)-3-methyl-1-oxobutan-2-yl)carbamate] was tested. Which EC50 did it give?
The EC50 was 5.7 nM.

For `CC[C@H](C)[C@H](NC(=O)OC)C(=O)N1[C@@H](C)CC[C@H]1c1nc(C(C)C)c(-c2cc3c4c(c2)OCc2cc(-c5[nH]c([C@@H]6CC[C@H](C)N6C(=O)[C@@H](NC(=O)OC)[C@@H](C)CC)nc5C(C)C)cc(c2-4)OC3)[nH]1` [Compound 41, dimethyl ((2S,2′S,3S,3′S)-((2S,2′S,5S,5′S)-((5,10-dihydrochromeno[5,4,3-cde]chromene-2,7-diyl)bis(4-isopropyl-1H-imidazole-5,2-diyl))bis(2-methylpyrrolidine-5,1-diyl))bis(3-methyl-1-oxopentane-1,2-diyl))dicarbamate], which EC50 is on record?
The EC50 was 2.8 nM.

For `CC[C@H](C)[C@H](NC(=O)OC)C(=O)N1CC(C)(C)C[C@H]1c1nc(Cl)c(-c2cc3c4c(c2)OCc2cc(-c5[nH]c([C@@H]6CC(C)(C)CN6C(=O)[C@@H](NC(=O)OC)[C@@H](C)CC)nc5Cl)cc(c2-4)OC3)[nH]1` [Compound 8, dimethyl ((2S,2′S,3S,3′S)-((5S,5′S)-((5,10-dihydrochromeno[5,4,3-cde]chromene-2,7-diyl)bis(4-chloro-1H-imidazole-5,2-diyl))bis(3,3-dimethylpyrrolidine-5,1-diyl))bis(3-methyl-1-oxopentane-1,2-diyl))dicarbamate], which EC50 is on record?
The EC50 was 4.4 nM.
